The results in this text go back to patent US20260184710A1, “CASITAS B-LINEAGE LYMPHOMA PROTOONCOGENE B (CBL-B) DEGRADING COMPOUNDS AND ASSOCIATED METHODS OF USE” (Arvinas Operations, Inc., priority 2022, published 2026).

Some results are limits rather than exact numbers.

What is called Dmax is the greatest extent of degradation seen.

In the first test the target is T1, Cbl-b (Homo sapiens, UniProt Q13191).
T1 construct: Cbl-b-HiBit KI Jurkat Cells were purchased from Promega; host or cells: Cbl-b-HiBiT knock-in Jurkat cells
T1 sequence (Q13191 whole entry): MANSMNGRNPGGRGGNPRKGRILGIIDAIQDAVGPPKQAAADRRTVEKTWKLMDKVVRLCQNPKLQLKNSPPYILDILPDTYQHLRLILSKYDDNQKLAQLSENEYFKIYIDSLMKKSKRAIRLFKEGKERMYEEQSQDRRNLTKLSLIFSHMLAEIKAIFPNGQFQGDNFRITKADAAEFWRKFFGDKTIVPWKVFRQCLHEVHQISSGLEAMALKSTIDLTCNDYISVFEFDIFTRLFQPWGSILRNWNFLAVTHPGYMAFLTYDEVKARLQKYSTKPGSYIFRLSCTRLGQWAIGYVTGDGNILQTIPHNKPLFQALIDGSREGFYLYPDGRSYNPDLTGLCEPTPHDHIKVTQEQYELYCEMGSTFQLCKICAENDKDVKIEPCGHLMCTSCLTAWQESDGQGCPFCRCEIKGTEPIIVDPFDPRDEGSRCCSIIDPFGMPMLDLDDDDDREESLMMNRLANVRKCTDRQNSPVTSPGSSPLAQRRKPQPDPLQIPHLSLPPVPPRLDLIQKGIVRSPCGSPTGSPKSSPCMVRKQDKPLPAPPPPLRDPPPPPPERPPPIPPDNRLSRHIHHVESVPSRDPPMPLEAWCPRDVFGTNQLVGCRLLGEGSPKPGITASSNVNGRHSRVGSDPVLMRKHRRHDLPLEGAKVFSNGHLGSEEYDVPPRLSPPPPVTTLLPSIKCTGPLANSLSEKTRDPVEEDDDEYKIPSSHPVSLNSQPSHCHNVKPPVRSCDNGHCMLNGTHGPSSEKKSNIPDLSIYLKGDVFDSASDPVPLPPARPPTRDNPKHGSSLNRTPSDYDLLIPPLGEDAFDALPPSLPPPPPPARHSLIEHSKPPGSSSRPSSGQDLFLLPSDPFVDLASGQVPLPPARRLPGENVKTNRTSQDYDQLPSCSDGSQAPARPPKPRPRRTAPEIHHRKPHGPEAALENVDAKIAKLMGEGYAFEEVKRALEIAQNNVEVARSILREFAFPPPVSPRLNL
Put plainly: Cbl-b Degradation Method B (Nano-Glo HiBiT lytic detection). The note with it: Cbl-b-HiBit KI Jurkat Cells, incubated at least 6-24 hours; half maximal degradation; read-out: Cbl-b Degredation Method B IC50. The class given is cell-based. As to the method: Cbl-b Degradation Method B [table] Cbl-b-HiBit KI Jurkat Cells were purchased from Promega, and cell media consisted of RPMI 1640 with 10% […] and 1% pen/strep. The cells were counted, measured for viability, and 35 μL of the cell solution was seeded into 384 well flat bottom plates at a ratio of 20,000 cells per 35 μL. After which, the plates were incubated for ˜24 hours at 37° C. and 5% CO2. Compounds were ordered from Evotec in a 384 well plate at a 1 mM top concentration in DMSO and serially diluted 1:3 in DMSO for an 11-point dose response. Using the Bravo instrument, 1 uL of compound solution or DMSO was transferred to 125 uL of media. Each well was treated with 5 μL of compound plus media mixture or DMO and subsequently incubated for at least 6-24 hours at 37° C. and 5% CO2. After incubation, 30 μL of either NanoGlo media was added to each cell, and the plates read on the Synergy Neo2 machine. The concentration of an exemplary compound that leads to half maximal degradation (DC50) as well as the maximum degradation observed (Dmax, conventionally expressed as a percentage of control) is shown below in Table 2.
With `Cn1cnnc1CC1(c2cccc(N3Cc4c(cc(CN5CCC(c6ccc7c(c6)C(=O)N(C6CCC(=O)NC6=O)C7)CC5)cc4C(F)(F)F)C3=O)c2)COC1` (stereo not drawn) [Example 36, 3-[6-(1-{[2-(3-{3-[(4-methyl-4H-1,2,4-triazol-3-yl)methyl]oxetan-3-yl}phenyl)-3-oxo-7-(trifluoromethyl)-2,3-dihydro-1H-isoindol-5-yl]methyl}piperidin-4-yl)-1-oxo-2,3-dihydro-1H-isoindol-2-yl]piperidine-2,6-dione], the DC50 was more than 500 nM.

`Cn1cnnc1CC1(c2cccc(N3Cc4c(cc(CNC5CC(Oc6ccc7c(c6)C(=O)N(C6CCC(=O)NC6=O)C7=O)C5)cc4C(F)(F)F)C3=O)c2)COC1` (stereo not drawn) [Example 37, 2-(2,6-dioxopiperidin-3-yl)-5-[3-({[2-(3-{3-[(4-methyl-4H-1,2,4-triazol-3-yl)methyl]oxetan-3-yl}phenyl)-3-oxo-7-(trifluoromethyl)-2,3-dihydro-1H-isoindol-5-yl]methyl}amino)cyclobutoxy]-2,3-dihydro-1H-isoindole-1,3-dione]: the DC50 was more than 500 nM.

`Cn1cnnc1CC1(c2cccc(N3Cc4c(cc(CNC5CCN(c6ccc7c(c6)C(=O)N(C6CCC(=O)NC6=O)C7=O)CC5)cc4C(F)(F)F)C3=O)c2)COC1` (stereo not drawn) [Example 38, 2-(2,6-dioxopiperidin-3-yl)-5-[4-({[2-(3-{3-[(4-methyl-4H-1,2,4-triazol-3-yl)methyl]oxetan-3-yl}phenyl)-3-oxo-7-(trifluoromethyl)-2,3-dihydro-1H-isoindol-5-yl]methyl}amino)piperidin-1-yl]-2,3-dihydro-1H-isoindole-1,3-dione]: the DC50 was more than 500 nM. Turning to `Cn1cnnc1CC1(c2cccc(N3Cc4c(cc(CN5CCC(CCN6CCN(c7ccc8c(c7)C(=O)N(C7CCC(=O)NC7=O)C8=O)CC6)CC5)cc4C(F)(F)F)C3=O)c2)COC1` (stereo not drawn) [Example 39, 2-(2,6-dioxopiperidin-3-yl)-5-{4-[2-(1-{[2-(3-{3-[(4-methyl-4H-1,2,4-triazol-3-yl)methyl]oxetan-3-yl}phenyl)-3-oxo-7-(trifluoromethyl)-2,3-dihydro-1H-isoindol-5-yl]methyl}piperidin-4-yl)ethyl]piperazin-1-yl}-2,3-dihydro-1H-isoindole-1,3-dione], the DC50 was more than 500 nM.

In the case of `Cn1cnnc1CC1(c2cccc(N3Cc4c(cc(CN5CCC(COCC6CCN(c7ccc8c(c7)C(=O)N(C7CCC(=O)NC7=O)C8=O)CC6)CC5)cc4C(F)(F)F)C3=O)c2)COC1` (stereo not drawn) [Example 40, 2-(2,6-dioxopiperidin-3-yl)-5-(4-{[(1-{[2-(3-{3-[(4-methyl-4H-1,2,4-triazol-3-yl)methyl]oxetan-3-yl}phenyl)-3-oxo-7-(trifluoromethyl)-2,3-dihydro-1H-isoindol-5-yl]methyl}piperidin-4-yl)methoxy]methyl}piperidin-1-yl)-2,3-dihydro-1H-isoindole-1,3-dione], the DC50 is more than 500 nM. Same read-out and setting: next, `Cn1cnnc1CC1(c2cccc(N3Cc4c(cc(CN5CCN(c6ccc7c(c6)CN(C6CCC(=O)NC6=O)C7=O)CC5)cc4C(F)(F)F)C3=O)c2)COC1` (stereo not drawn) [Example 41, 3-[5-(4-{[2-(3-{3-[(4-methyl-4H-1,2,4-triazol-3-yl)methyl]oxetan-3-yl}phenyl)-3-oxo-7-(trifluoromethyl)-2,3-dihydro-1H-isoindol-5-yl]methyl}piperazin-1-yl)-1-oxo-2,3-dihydro-1H-isoindol-2-yl]piperidine-2,6-dione]: 5 to 50 nM; `Cn1cnnc1CC1(c2cccc(N3Cc4c(cc(CN5CCC6(CC5)CN(c5cccc7c5CN(C5CCC(=O)NC5=O)C7=O)C6)cc4C(F)(F)F)C3=O)c2)COC1` (stereo not drawn) [Example 42, 3-[4-(7-{[2-(3-{3-[(4-methyl-4H-1,2,4-triazol-3-yl)methyl]oxetan-3-yl}phenyl)-3-oxo-7-(trifluoromethyl)-2,3-dihydro-1H-isoindol-5-yl]methyl}-2,7-diazaspiro[3.5]nonan-2-yl)-1-oxo-2,3-dihydro-1H-isoindol-2-yl]piperidine-2,6-dione]: more than 500 nM. On the same count and under the same terms, in the case of `Cn1cnnc1CC1(c2cccc(N3Cc4c(cc(CN[C@H]5CC[C@H](N6CCN(c7ccc8c(c7)C(=O)N(C7CCC(=O)NC7=O)C8=O)CC6)CC5)cc4C(F)(F)F)C3=O)c2)COC1` (stereo partly drawn) [Example 43, 2-(2,6-dioxopiperidin-3-yl)-5-{4-[(1r,4r)-4-({[2-(3-{3-[(4-methyl-4H-1,2,4-triazol-3-yl)methyl]oxetan-3-yl}phenyl)-3-oxo-7-(trifluoromethyl)-2,3-dihydro-1H-isoindol-5-yl]methyl}amino)cyclohexyl]piperazin-1-yl}-2,3-dihydro-1H-isoindole-1,3-dione] it was 5 to 50 nM; in that of `Cn1cnnc1CC1(c2cccc(N3Cc4c(cc(CN5CCN([C@H]6CC[C@H](Nc7ccc8c(c7)C(=O)N(C7CCC(=O)NC7=O)C8=O)CC6)CC5)cc4C(F)(F)F)C3=O)c2)COC1` (stereo partly drawn) [Example 44, 2-(2,6-dioxopiperidin-3-yl)-5-{[(1r,4r)-4-(4-{[2-(3-{3-[(4-methyl-4H-1,2,4-triazol-3-yl)methyl]oxetan-3-yl}phenyl)-3-oxo-7-(trifluoromethyl)-2,3-dihydro-1H-isoindol-5-yl]methyl}piperazin-1-yl)cyclohexyl]amino}-2,3-dihydro-1H-isoindole-1,3-dione], more than 500 nM; in that of `Cn1cnnc1CC1(c2cccc(N3Cc4c(cc(CN5CCC6(CC5)CCN(CC5CCN(c7ccc8c(c7)C(=O)N(C7CCC(=O)NC7=O)C8=O)CC5)CC6)cc4C(F)(F)F)C3=O)c2)COC1` (stereo not drawn) [Example 45, 2-(2,6-dioxopiperidin-3-yl)-5-{4-[(9-{[2-(3-{3-[(4-methyl-4H-1,2,4-triazol-3-yl)methyl]oxetan-3-yl}phenyl)-3-oxo-7-(trifluoromethyl)-2,3-dihydro-1H-isoindol-5-yl]methyl}-3,9-diazaspiro[5.5]undecan-3-yl)methyl]piperidin-1-yl}-2,3-dihydro-1H-isoindole-1,3-dione], more than 500 nM. The same measure, in the same setting: next, `Cn1cnnc1CC1(c2cccc(N3Cc4c(cc(CN5CCC(CN6CCN(CC7CCN(c8ccc9c(c8)C(=O)N(C8CCC(=O)NC8=O)C9=O)CC7)CC6)CC5)cc4C(F)(F)F)C3=O)c2)COC1` (stereo not drawn) [Example 46, 2-(2,6-dioxopiperidin-3-yl)-5-[4-({4-[(1-{[2-(3-{3-[(4-methyl-4H-1,2,4-triazol-3-yl)methyl]oxetan-3-yl}phenyl)-3-oxo-7-(trifluoromethyl)-2,3-dihydro-1H-isoindol-5-yl]methyl}piperidin-4-yl)methyl]piperazin-1-yl}methyl)piperidin-1-yl]-2,3-dihydro-1H-isoindole-1,3-dione]: more than 500 nM; `Cn1cnnc1CC1(c2cccc(N3Cc4c(cc(CN5CCN(CCCOc6ccc7c(c6)C(=O)N(C6CCC(=O)NC6=O)C7=O)CC5)cc4C(F)(F)F)C3=O)c2)COC1` (stereo not drawn) [Example 47, 2-(2,6-dioxopiperidin-3-yl)-5-[3-(4-{[2-(3-{3-[(4-methyl-4H-1,2,4-triazol-3-yl)methyl]oxetan-3-yl}phenyl)-3-oxo-7-(trifluoromethyl)-2,3-dihydro-1H-isoindol-5-yl]methyl}piperazin-1-yl)propoxy]-2,3-dihydro-1H-isoindole-1,3-dione]: more than 500 nM. Consider `Cn1cnnc1CC1(c2cccc(N3Cc4c(cc(CN5CC(C6CN(c7ccc8c(c7)C(=O)N(C7CCC(=O)NC7=O)C8=O)C6)C5)cc4C(F)(F)F)C3=O)c2)COC1` (stereo not drawn) [Example 48, 2-(2,6-dioxopiperidin-3-yl)-5-(1′-{[2-(3-{3-[(4-methyl-4H-1,2,4-triazol-3-yl)methyl]oxetan-3-yl}phenyl)-3-oxo-7-(trifluoromethyl)-2,3-dihydro-1H-isoindol-5-yl]methyl}-[3,3′-biazetidin]-1-yl)-2,3-dihydro-1H-isoindole-1,3-dione], for which the DC50 is 50 to 500 nM. Turning to `Cn1cnnc1CC1(c2cccc(N3Cc4c(cc(CN5CC6(CCN(c7ccc8c(c7)C(=O)N(C7CCC(=O)NC7=O)C8=O)CC6)C5)cc4C(F)(F)F)C3=O)c2)COC1` (stereo not drawn) [Example 49, 2-(2,6-dioxopiperidin-3-yl)-5-(2-{[2-(3-{3-[(4-methyl-4H-1,2,4-triazol-3-yl)methyl]oxetan-3-yl}phenyl)-3-oxo-7-(trifluoromethyl)-2,3-dihydro-1H-isoindol-5-yl]methyl}-2,7-diazaspiro[3.5]nonan-7-yl)-2,3-dihydro-1H-isoindole-1,3-dione], the DC50 is more than 500 nM. On to `COc1cc(N2CCN(CC3CCN(Cc4cc5c(c(C(F)(F)F)c4)CN(c4cccc(C6(Cc7nncn7C)COC6)c4)C5=O)CC3)CC2)cc2c1C(=O)N(C1CCC(=O)NC1=O)C2=O` (stereo not drawn) [Example 51, 2-(2,6-dioxopiperidin-3-yl)-4-methoxy-6-{4-[(1-{[2-(3-{3-[(4-methyl-4H-1,2,4-triazol-3-yl)methyl]oxetan-3-yl}phenyl)-3-oxo-7-(trifluoromethyl)-2,3-dihydro-1H-isoindol-5-yl]methyl}piperidin-4-yl)methyl]piperazin-1-yl}-2,3-dihydro-1H-isoindole-1,3-dione], for which the DC50 was more than 500 nM.

The same test, now with this note: Cbl-b-HiBit KI Jurkat Cells, incubated at least 6-24 hours; maximum degradation observed; read-out: Cbl-b Degredation Method B Dmax (%).
As for `Cn1cnnc1CC1(c2cccc(N3Cc4c(cc(CN5CCN(c6ccc7c(c6)CN(C6CCC(=O)NC6=O)C7=O)CC5)cc4C(F)(F)F)C3=O)c2)COC1` (stereo not drawn) [Example 41, 3-[5-(4-{[2-(3-{3-[(4-methyl-4H-1,2,4-triazol-3-yl)methyl]oxetan-3-yl}phenyl)-3-oxo-7-(trifluoromethyl)-2,3-dihydro-1H-isoindol-5-yl]methyl}piperazin-1-yl)-1-oxo-2,3-dihydro-1H-isoindol-2-yl]piperidine-2,6-dione], the Dmax is more than 70%. In the case of `Cn1cnnc1CC1(c2cccc(N3Cc4c(cc(CN[C@H]5CC[C@H](N6CCN(c7ccc8c(c7)C(=O)N(C7CCC(=O)NC7=O)C8=O)CC6)CC5)cc4C(F)(F)F)C3=O)c2)COC1` (stereo partly drawn) [Example 43, 2-(2,6-dioxopiperidin-3-yl)-5-{4-[(1r,4r)-4-({[2-(3-{3-[(4-methyl-4H-1,2,4-triazol-3-yl)methyl]oxetan-3-yl}phenyl)-3-oxo-7-(trifluoromethyl)-2,3-dihydro-1H-isoindol-5-yl]methyl}amino)cyclohexyl]piperazin-1-yl}-2,3-dihydro-1H-isoindole-1,3-dione], the Dmax is less than 35%. On to `Cn1cnnc1CC1(c2cccc(N3Cc4c(cc(CN5CC(C6CN(c7ccc8c(c7)C(=O)N(C7CCC(=O)NC7=O)C8=O)C6)C5)cc4C(F)(F)F)C3=O)c2)COC1` (stereo not drawn) [Example 48, 2-(2,6-dioxopiperidin-3-yl)-5-(1′-{[2-(3-{3-[(4-methyl-4H-1,2,4-triazol-3-yl)methyl]oxetan-3-yl}phenyl)-3-oxo-7-(trifluoromethyl)-2,3-dihydro-1H-isoindol-5-yl]methyl}-[3,3′-biazetidin]-1-yl)-2,3-dihydro-1H-isoindole-1,3-dione], for which the Dmax lay in the range of 35 to 70%.
